Patent US20190183894A1, “METHOD OF TREATMENT OF DIABETIC FOOT ULCERS” (Malesil Research & Technology LLC, priority 2017, published 2019)
Where two headings read alike, the source gives them in different places.

Experiments:
[1] = test system: diabetic patients with grade 2 and grade 3 ulcers (Wagner classification); assay type: in vivo, human
Description: In order to assess the effect of sildenafil maleate in treatment of diabetic foot ulcers, a 12-week open-label longitudinal study was conducted to compare the conventional treatment and the conventional treatment with simultaneous administration of sildenafil maleate.
Diabetic patients with grade 2 and grade 3 ulcers were selected, according to Wagner classification and complying with the following inclusion and exclusion criteria:
Inclusion Criteria: • Male or female patients with type-2 Diabetes Mellitus • Age younger than 80 years • Grade-2 or -3 foot or leg ulcer, of any origin according to Wagner classification, without compromising tendons nor bone, with a progression time not higher than 3 months. • Presence or absence of localized infection • Without peripheral vascular obstruction
Exclusion Criteria • Type-1 Diabetes Mellitus patients • Grade-4 foot or leg ulcer according to Wagner classification or foot or knuckle necrosis • Peripheral vascular obstruction (ankle/arm index lower than 0.3) • Patients with creatinine higher than 1.2 mg/dL or blood urea nitrogen (BUN) higher than 50 • Transaminases 2 times above baseline • Microalbuminuria higher than 100
Patients who meet inclusion and exclusion criteria, who voluntarily accept to participate in the study and further signing a written consent, are randomly assigned to two study groups:
Group I: Conventional treatment
Group II: Conventional treatment with simultaneous administration of sildenafil maleate.
Patients are required to perform wound treatment and to register lesion progression.
Visit 1 • Signature of written consent • Physical examination • Petition of clinical lab examinations: complete blood count, glycosilated hemoglobin (HbA1c), total colesterol, total lipids, triglycerides, HDL-colesterol, urea, creatinine, microalbumina, aspartate aminotransferase (TGO), alanine aminotransferase (TGP), reactive, ultra-sensitive C-protein (PCR-u), urine test, pre and postprandial glycemia, lesion culture when required. • Conventional healing of lesion • Arterial Doppler request of affected limb • Provide treatment with antibiotics when necessary
Visit 2 (1 to 3 Days after Visit 1) • Interpretation of lab examination and Doppler study • Clinical/physical lesion examination • Patient inclusion/exclusion decision into the study • Random assignment of study groups • Registration of lesion characteristics (lesion photographs) • Assessment of metabolic control
Visit 3 (1 to 3 Days after Visit 2) • Registration of lesion progression (lesion photographs) • Assessment of patient's metabolic control • Delivery of corresponding medicaments (antibiotics and sildenafil maleate as applicable) • Registration de adverse events
Visit 4 Until Week 12 of Study (2 to 3 Times Per Week) • Registration of lesion progression (lesion photographs) • Registration de adverse events • Assessment of metabolic control
Visit 5 (1 to 5 Days after Final Visit) • Registration of lesion progression (lesion photographs) • Registration of adverse events • Compliance with study medication intake • Education for future lesion prevention
Wound treatment applied to all patients during each visit consists of cleaning with […] and distilled water, using sterile material; ointment MEBO® (Moist exposed Burn Treatment) was locally applied and dressing with sterile gauze when needed.
Study medication was delivered in accordance with the previously established protocol; compliance with medication intake and presence of adverse events was verified. Medication was suspended in case of showing any adverse effect, even a mild event associated with study medicament (sildenafil maleate).

[2] = cited from earlier work

sildenafil maleate
effect on macro and microcirculation, granulation and healing of ulcers ([1]; 10-mg daily dose, oral, diabetic foot patients): improvement in macro and microcirculation | recovery of patients with previous amputations ([1]; Group II patients who had previous amputations): total recovery | blood flow and health status of lower limbs after end of treatment ([1]; Group II patients whose treatment concluded before the 12 weeks): kept an improvement in blood flow | patients who obtained a satisfactory result (lesion healing) ([1]; Group II: conventional treatment with simultaneous sildenafil maleate): 100% | adverse events ([1]; in vivo): did not experience adverse events | side effects ([1]; in vivo, po): does not show side effects | lower healing time than group with conventional treatment ([1]; patients with grade 2 ulcers): 20 days | Average healing time (Group II) ([1]; ulcer grade 2 according to Wagner scale): 47 days | Average healing time (Group II) ([1]; ulcer grade 3 according to Wagner scale): 81 days | Average healing time (Group II) ([1]; ulcer grades 2 and 3 according to Wagner scale): 55 days | decrease of recovery time ([1]; vs conventional treatment, regardless of ulcer grade and lesion area): about 20 days | absorption compared with sildenafil citrate ([2]; in vivo): faster absorption | bioequivalence with sildenafil citrate ([2]; in vivo): bioequivalent | plasma protein binding ([2]; in vivo): mostly bound to plasma proteins | delay of maximum peak ([2]; ingested during a high fat content meal): 60 min | time to maximum concentration ([2]; oral administration, fasting subjects): 60 min | distribution volume ([2]; stationary media (steady state)): 105 L
